Test results as given in the supplement of paper PMC10307832.

These cell lines were tested with C[C@]1(c2nc3c(C(N)=O)cccc3[nH]2)CCCN1 [Veliparib] + O=C(c1cc(Cc2n[nH]c(=O)c3ccccc23)ccc1F)N1CCN(C(=O)C2CC2)CC1 [Olaparib] (partner 8 µM) (assay: relative viability (nuclei count vs DMSO), 5 days (fraction); higher = more cells survive). Conditions: first compound 0.02 µM.
Method in brief: (§1)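 One day after seeding in 1536-well plates, lung cancer cell lines were dosed by pin tool. Dosing was either single-drug or a fixed anchor-drug dose plus five library-drug doses (not always all listed) in √10 steps. After 5 days, nuclei were stained in one fix-and-stain step and counted on 4× images, and relative viability is the nuclei count of treated wells over that of vehicle wells, given as the median of duplicate plates.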
With NCI-H23 the relative viability was 0.34.
In the case of NCI-H661, the relative viability is reported as 0.749.
Cell Line CAL-12T has a relative viability of 0.723.
NCI-H1944 gave a relative viability of 0.433.
In the case of HCC-366, the relative viability is reported as 0.431.

Same assay, conditions: first compound 0.06325 µM
Work on NCI-H23 yielded a relative viability of 0.338.
For NCI-H661, the relative viability was 0.824.
Work on CAL-12T yielded a relative viability of 0.727.
NCI-H1944 gave a relative viability of 0.437.
With HCC-366 the relative viability was 0.374.
For NCI-H322M, the relative viability was 0.737.

Same assay, conditions: first compound 0.2 µM
NCI-H23 was tested, and the relative viability was 0.345.
NCI-H661 showed a relative viability of 0.712.
For CAL-12T, the relative viability was 0.696.
Cell Line NCI-H1944 has a relative viability of 0.418.
In the case of HCC-366, the relative viability is reported as 0.401.
For NCI-H322M, the relative viability was 0.786.

Same assay, conditions: first compound 0.6325 µM
NCI-H23 was tested, and the relative viability was 0.355.
Cell Line NCI-H661 has a relative viability of 0.692.
With CAL-12T the relative viability was 0.649.
NCI-H1944 was tested, and the relative viability was 0.388.
For HCC-366, the relative viability was 0.303.
For NCI-H322M, the relative viability was 0.74.

Same assay, conditions: first compound 2 µM
Work on NCI-H23 yielded a relative viability of 0.314.
Cell Line NCI-H661 has a relative viability of 0.741.
CAL-12T gave a relative viability of 0.712.
NCI-H1944 showed a relative viability of 0.385.
HCC-366 gave a relative viability of 0.353.
With NCI-H322M the relative viability was 0.715.

These cell lines were tested with C[C@]1(c2nc3c(C(N)=O)cccc3[nH]2)CCCN1 [Veliparib] + CC(=O)c1c(C)c2cnc(Nc3ccc(N4CCNCC4)cn3)nc2n(C2CCCC2)c1=O [Palbociclib] (partner 0.5 µM) in the same assay as above. Conditions: first compound 0.02 µM.
Method in brief: as §1
Work on NCI-H23 yielded a relative viability of 0.546.
NCI-H661 showed a relative viability of 0.382.
Work on CAL-12T yielded a relative viability of 0.179.
With NCI-H1944 the relative viability was 0.302.
In the case of HCC-366, the relative viability is reported as 0.352.

Same assay, conditions: first compound 0.06325 µM
NCI-H23 showed a relative viability of 0.428.
With NCI-H661 the relative viability was 0.41.
For CAL-12T, the relative viability was 0.301.
With NCI-H1944 the relative viability was 0.348.
For HCC-366, the relative viability was 0.371.
NCI-H322M was tested, and the relative viability was 0.491.

Same assay, conditions: first compound 0.2 µM
NCI-H23 showed a relative viability of 0.445.
With NCI-H661 the relative viability was 0.4.
CAL-12T showed a relative viability of 0.402.
With NCI-H1944 the relative viability was 0.355.
With HCC-366 the relative viability was 0.369.
NCI-H322M gave a relative viability of 0.48.

Same assay, conditions: first compound 0.6325 µM
NCI-H23 showed a relative viability of 0.486.
With NCI-H661 the relative viability was 0.371.
CAL-12T was tested, and the relative viability was 0.382.
For NCI-H1944, the relative viability was 0.324.
With HCC-366 the relative viability was 0.371.
In the case of NCI-H322M, the relative viability is reported as 0.514.

Same assay, conditions: first compound 2 µM
NCI-H23 gave a relative viability of 0.516.
For NCI-H661, the relative viability was 0.384.
With CAL-12T the relative viability was 0.58.
NCI-H1944 gave a relative viability of 0.329.
HCC-366 was tested, and the relative viability was 0.341.
In the case of NCI-H322M, the relative viability is reported as 0.49.
